Patent US6537994B2, “Heterocyclic β3 adrenergic receptor agonists” (Wyeth, priority 2000, dated 2003)
pEC50: −log10 of the molar value. Several values for one entry are separate records, joined by “and”; a condition that tells them apart may be missing. Equal values may be shown once.

Key:
human β3-AR = target: T1, human β3-AR (Homo sapiens, UniProt P13945); experiment: cAMP accumulation (SPA) in CHO cells transfected with human β3 adrenergic receptor; format: cell-based; conditions: for pEC50: CHO cells expressing human β3-AR, cAMP, 30 min incubation, 10^−9 M to 10^−5 M; for IA(β3): maximal response, IA=% activity compound/% activity isoproterenol at 10^−5 M
T1 construct: Full length β3 AR clones (402 amino acids) containing the last 6 amino acids of hβ3-AR; expressed in transfected cells; host or cells: CHO cells
Experimental: The ability of compounds of this invention to treat or inhibit disorders related to insulin resistance or hyperglycemia was confirmed with representative compounds of this invention in the following standard pharmacological test procedures, which measured the binding selectivity to the β1, β2, and β3 adrenergic receptors. Binding to the receptors was measured in Chinese Hamster ovary (CHO) cells that were transfected with adrenergic receptors. The following briefly summarizes the procedures used and results obtained.
Cloning of Human β3-AR Genomic DNA: cDNA was constructed by ligating four polymerase chain reaction (PCR) products using the following primers: an ATG-Narl fragment, sense primer 5′-[…]3′ and anti-sense primer 5′[…]3′; a Narl-Accl fragment, 5′[…]3′ as sense and 5′[…]3′ as anti-sense primer; an Accli-Styl fragment, sense primer 5′[…]3′ and anti-sense primer 5′[…]3′ and a Styl-TAG fragment, with sense primer 5′[…]3′ and anti-sense primer 5′[…]3′. The corresponding primer sequences are described in Mantzoros, C. S., et. al., Diabetes 45: 909-914 (1996). The four fragments are ligated into a pUC 18 plasmid (Gibco-BRL) and sequenced. Full length β3 AR clones (402 amino acids) containing the last 6 amino acids of hβ3-AR are prepared with the β3-βARpcDNA3 from ATTC.
Binding Procedure: Clones expressing receptor levels of 70 to 110 fmoles/mg protein were used in the test procedures. CHO cells were grown in 24-well tissue culture plates in Dulbecco's Modified Eagle Media with 10% fetal bovine serum, MEM non-essential amino acids, Penicillin-Streptompycin and Geneticin. On the day of test procedure, growth medium was replaced with preincubation media (Dulbecco's Modified Eagle Media and incubated for 30 minutes at 37° C. Preincubation medium was replaced with 0.2 ml treatment medium containing DMEM media containing 250 μM IBMX (isobutyl-1-methylxantine) plus 1 mM ascorbic acid with test compound dissolved in DMSO. Test compounds were tested over a concentration range of 10^−9 M to 10^−5 M for β3 cells and 10^−8 to 10^−4 M for β1 and β2 transfected cells. Isoproterenol (10^−5 M) was used as an internal standard for comparison of activity. Cells were incubated at 37° C. on a rocker for 30 min with the β3 cells and 15 min for β1 and β2 cells. Incubation was stopped with the addition of 0.2N HCl and neutralized with 2.5N NaOH. The plates, containing the cells and neutralized media, were stored at −20 degrees celsius until ready to test for cAMP using the SPA test kit (Amersham).
Data Analysis and Results: Data collected from the SPA test procedure were analyzed as per cent of the maximal isoproterenol response at 10^−5 M. Activity curves were plotted using the SAS statistical and graphics software.
IA=% activity compound/% activity isoproterenol

T1 sequence (P13945 whole entry): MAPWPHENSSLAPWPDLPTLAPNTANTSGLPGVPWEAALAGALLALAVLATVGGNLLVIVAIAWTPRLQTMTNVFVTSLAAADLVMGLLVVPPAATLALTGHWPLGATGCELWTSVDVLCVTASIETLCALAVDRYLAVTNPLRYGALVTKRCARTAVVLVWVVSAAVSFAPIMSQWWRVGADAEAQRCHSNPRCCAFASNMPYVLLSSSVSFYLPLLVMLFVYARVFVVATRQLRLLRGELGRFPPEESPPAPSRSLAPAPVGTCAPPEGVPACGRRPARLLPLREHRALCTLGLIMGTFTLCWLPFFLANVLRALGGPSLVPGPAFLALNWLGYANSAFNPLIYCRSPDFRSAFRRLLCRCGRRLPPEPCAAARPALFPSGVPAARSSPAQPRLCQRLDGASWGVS

Structure (SMILES) | melting point | pEC50 (human β3-AR) | IA(β3) (human β3-AR)
O=[N+]([O-])c1cccnc1Nc1ccc(CCNC[C@H](O)COc2ccc(O)cc2)cc1 (hydrate or solvate) [Example 1, 4-((2S)-2-Hydroxy-3-{2-[4-(3-nitro-pyridin-2-ylamino)-phenyl]-ethylamino}-propoxy)-phenol] | 148 to 149 °C |  | 
Nc1cccnc1Nc1ccc(CCNC[C@H](O)COc2ccc(O)cc2)cc1 (hydrate or solvate) [Example 2, 4-((2R)-3-{2-[4-(3-Amino-pyridin-2-ylamino)-phenyl]-ethylamino}-2-hydroxy-propoxy)-phenol] | 63 to 65 °C |  | 
Oc1ccc(OC[C@@H](O)CNCCc2ccc(-n3cnc4cccnc43)cc2)cc1 (hydrate or solvate) [Example 3, 4-{(2S)-2-Hydroxy-3-[2-(4-imidazo[4,5-b]pyridin-3-yl-phenyl)-ethylamino]-propoxy}-phenol] | 49 to 52 °C |  | 
Nc1cccnc1Nc1ccc(CCNCC(O)COc2ccc(O)cc2)cc1 (stereo in doubt) [Example 2, 4-((2R)-3-{2-[4-(3-Amino-pyridin-2-ylamino)-phenyl]-ethylamino}-2-hydroxy-propoxy)-phenol] |  | 7.14 | 1.01
O=[N+]([O-])c1cccnc1Nc1ccc(CCNC[C@H](O)COc2ccc(O)cc2)cc1 [Example 1, 4-((2S)-2-Hydroxy-3-{2-[4-(3-nitro-pyridin-2-ylamino)-phenyl]-ethylamino}-propoxy)-phenol] |  | 6.49 | 0.65
Oc1ccc(OC[C@@H](O)CNCCc2ccc(-n3cnc4cccnc43)cc2)cc1 [Example 3, 4-{(2S)-2-Hydroxy-3-[2-(4-imidazo[4,5-b]pyridin-3-yl-phenyl)-ethylamino]-propoxy}-phenol] |  | 7.02 | 0.76
CCCCCCNC(=O)Nc1cccnc1Nc1ccc(CCNC[C@H](O)COc2ccc(O)cc2)cc1 [Example 4, 1-Hexyl-3-[2-(4-{2-[(2S)-2-hydroxy-3-(4-hydroxy-phenoxy)-propylamino]-ethyl}-phenylamino)-pyridin-3-yl]-urea] | 61 to 64 °C |  | 
Nc1cccnc1Oc1ccc(CCNC[C@H](O)COc2ccc(O)cc2)cc1 [Example 5, 4-((2S)-3-{2-[4-(3-Amino-pyridin-2-yloxy)-phenyl]-ethylamino}-2-hydroxy-propoxy)-phenol] |  | 7.70 | 1.12
O=C(Nc1cccnc1Nc1ccc(CCNC[C@H](O)COc2ccc(O)cc2)cc1)c1ccccc1 [Example 6, N-[2-(4-{2-[(2S)-2-Hydroxy-3-(4-hydroxy-phenoxy)-propylamino]-ethyl}-phenylamino)-pyridin-3-yl]-benzamide] | 97 to 99 °C | 7.08 | 0.88
C=C(C)n1c(=O)n(-c2ccc(CCNC[C@H](O)COc3ccc(O)cc3)cc2)c2ncccc21 [Example 7, 3-(4-{2-[(2S)-2-Hydroxy-3-(4-hydroxy-phenoxy)-propylamino]-ethyl}-phenyl)-1-isopropenyl-1,3-dihydro-imidazo[4,5-b]pyridin-2-one] | 62 to 64 °C | 7.24 | 1.12

The remaining lines, values ahead:

melting point | pEC50 (human β3-AR) | IA(β3) (human β3-AR) | Structure (SMILES)
110 to 116 °C |  |  | CCCCCCNC(=O)Nc1ccc(-c2nc3cccnc3n2-c2ccc(CCNC[C@H](O)COc3ccc(O)cc3)cc2)cc1 (hydrate or solvate) [Example 15, N-hexyl-N′-(4-{3-[4-(2-{[(2S)-2-hydroxy-3-(4-hydroxyphenoxy)propyl]amino}ethyl)phenyl]-3H-imidazo[4,5-b]pyridin-2-yl}phenyl)urea]
93 to 95 °C |  |  | CCCCCCNC(=O)Nc1cccc(-c2nc3cccnc3n2-c2ccc(CCNCC(O)COc3ccc(O)cc3)cc2)c1 (stereo not drawn) (hydrate or solvate) [Example 16, 1-Hexyl-3-{3-[3-(4-{2-[2-hydroxy-3-(4-hydroxy-phenoxy)-propylamino]-ethyl}-phenyl)-3H-imidazo[4,5-b]pyridin-2-yl]-phenyl}-urea]
90 to 92 °C |  |  | CCCCCCNC(=O)Nc1ccc(CCc2nc3cccnc3n2-c2ccc(CCNC[C@H](O)COc3ccc(O)cc3)cc2)cc1 (hydrate or solvate) [Example 17, 1-Hexyl-3-(4-{2-[3-(4-{2-[(2S)-2-hydroxy-3-(4-hydroxy-phenoxy)-propylamino]-ethyl}-phenyl)-3H-imidazo[4,5-b]pyridin-2-yl]-ethyl}-phenyl)-urea]
75 to 78 °C | 8.22 | 1.03 | CCc1ccc(-c2nc3cccnc3n2-c2ccc(CCNC[C@H](O)COc3ccc(O)cc3)cc2)cc1 [Example 8, 4-[(2S)-3-(2-{4-[2-(4-Ethyl-phenyl)-imidazo[4,5-b]pyridin-3-yl]-phenyl}-ethylamino)-2-hydroxy-propoxy]-phenol]
50 to 52 °C | 6.58 | 0.74 | CCCCCc1nc2cccnc2n1-c1ccc(CCNC[C@H](O)COc2ccc(O)cc2)cc1 [Example 9, 4-((2S)-2-Hydroxy-3-{2-[4-(2-pentyl-imidazo[4,5-b]pyridin-3-yl)-phenyl]-ethylaminol}-propoxy)-phenol]
100 to 102 °C | 8.22 | 0.96 | Oc1ccc(OC[C@@H](O)CNCCc2ccc(-n3c(-c4ccc(C5CCCCC5)cc4)nc4cccnc43)cc2)cc1 [Example 10, 4-[(2S)-3-(2-{4-[2-(4-Cyclohexyl-phenyl)-imidazo[4,5-b]pyridin-3-yl]-phenyl}-ethylamino)-2-hydroxy-propoxy]-phenol]
59 to 61 °C | 8.00 | 0.86 | Oc1ccc(OC[C@@H](O)CNCCc2ccc(-n3c(CCC4CCCC4)nc4cccnc43)cc2)cc1 [Example 11, 4-[(2S)-3-(2-{4-[2-(2-Cyclopentyl-ethyl)-imidazo[4,5-b]pyridin-3-yl]-phenyl}-ethylamino)-2-hydroxy-propoxy]-phenol]
115 to 117 °C | 8.30 and 7.82 |  | O=c1[nH]c2cccc(OCC(O)CNCCc3ccc(-n4c(CCC5CCCC5)nc5cccnc54)cc3)c2[nH]1 (stereo not drawn) [Example 12, 4-[3-(2-{4-[2-(2-Cyclopentyl-ethyl)-imidazo[4,5-b]pyridin-3-yl]-phenyl}-ethylamino) -2-hydroxy-propoxy]-1,3-dihydro-benzoimidazol-2-one]
 | 7.34 | 0.087 | CCCCCc1nc2cccnc2n1-c1ccc(CCNC[C@H](O)COc2cccc3[nH]c(=O)[nH]c23)cc1 [Example 13, 4-((2S)-2-Hydroxy-3-{2-[4-(2-pentyl-imidazo[4,5-b]pyridin-3-yl)-phenyl]-ethylaminol}-propoxy)-1,3-dihydro-benzoimidazol-2-one]
87 to 89 °C | 7.27 | 0.086 | Cc1ccn(-c2ccc(-c3nc4cccnc4n3-c3ccc(CCNCC(O)COc4ccc(O)cc4)cc3)c(Cl)c2)n1 (stereo not drawn) [Example 14, 4-{3-[2-(4-{2-[2-Chloro-4-(3-methyl-pyrazol-1-yl)-phenyl]-imidazo[4,5-b]pyridin-3-yl}-phenyl)-ethylamino]-2-hydroxy-propoxy}-phenol]
 | 7.15 | 1.05 | CCCCCCNC(=O)Nc1ccc(-c2nc3cccnc3n2-c2ccc(CCNC[C@H](O)COc3ccc(O)cc3)cc2)cc1 [Example 15, N-hexyl-N′-(4-{3-[4-(2-{[(2S)-2-hydroxy-3-(4-hydroxyphenoxy)propyl]amino}ethyl)phenyl]-3H-imidazo[4,5-b]pyridin-2-yl}phenyl)urea]
